Laboratory results: US20250154686A1, “COMPOUND LIBRARY” (CHUGAI SEIYAKU KABUSHIKI KAISHA, priority 2021, published 2025)

Target: T1, Bcl-2 protein (Recombinant Human Bcl-2 Protein) (Homo sapiens, UniProt P10415)
T1 construct: purchased Novus Biologicals NBP2-34889
Experiment: AS-MS evaluation of binding of the Example 4 mixture library (1200 compounds/well) to Bcl-2, ASMS ratio (%)
In short: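 Affinity-selection MS: after spin-column size exclusion and organic extraction, LC/MS signals give an ASMS ratio (%), referenced to protein-free samples with and without column treatment. Binding step combined 20 μM human Bcl-2 with the 1200-compound pool at 20 nM per compound, 1 h, 23° C., dark, pH 7.4 Tris-HCl/NaCl/Tween-20/DTT.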

[1] = replicate n = 1, mixture library, value belongs to the MS peak assigned to the compound
[2] = replicate n = 2, mixture library, value belongs to the MS peak assigned to the compound
[3] = AS-MS, Example 4 mixture library, Bcl-2, replicate n = 1
[4] = AS-MS, Example 4 mixture library, Bcl-2, replicate n = 2

T1 sequence (P10415 whole entry): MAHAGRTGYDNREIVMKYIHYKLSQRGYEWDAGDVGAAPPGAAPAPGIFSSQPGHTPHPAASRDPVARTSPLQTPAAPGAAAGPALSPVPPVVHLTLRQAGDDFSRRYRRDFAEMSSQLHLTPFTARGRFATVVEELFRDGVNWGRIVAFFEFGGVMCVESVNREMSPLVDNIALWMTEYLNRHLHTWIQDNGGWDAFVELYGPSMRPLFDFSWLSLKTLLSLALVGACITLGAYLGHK

ASMS ratio (%) n = 1 [1] [%] | ASMS ratio (%) n = 1 [3] [%] | ASMS ratio (%) n = 2 [4] [%] | Compound | also measured
 | 15.8 | 13.5 | CCOc1cncc(-c2ccccc2CCC(=O)N2CCN(c3ccc(C(=O)NS(=O)(=O)c4ccc(NCCSc5ccccc5)c(C(F)(F)F)c4)nn3)CC2)c1 [Compound B2R012-01, 6-[4-[3-[2-(5-Ethoxypyridin-3-yl)phenyl]propanoyl]piperazin-1-yl]-N-[4-(2-phenylsulfanylethylamino)-3-(trifluoromethyl)phenyl]sulfonylpyridazine-3-carboxamide] | 
 | 0.0 | 0.0 | CCOc1cncc(-c2ccc(CN3CCN(c4ccc(C(=O)NS(=O)(=O)c5ccc(NCCSc6ccccc6)c(C(F)(F)F)c5)cc4)CC3)c(CC)c2)c1 [Compound B2R050-01] | 
 | 0.0 | 0.5 | CCOc1cncc(-c2csc(CN3CCN(c4ccc(C(=O)NS(=O)(=O)CCC(F)(F)F)cc4)CC3)c2)c1 [Compound B2N068-01, 4-[4-[[4-(5-Ethoxypyridin-3-yl)thiophen-2-yl]methyl]piperazin-1-yl]-N-(3,3,3-trifluoropropylsulfonyl)benzamide] | 
 | 9.1 | 2.7 | CCOc1cncc(-c2cc(C(=O)N3CCN(c4ccc(C(=O)NS(=O)(=O)c5ccc(NCCSc6ccccc6)c(C(F)(F)F)c5)nn4)CC3)cc(C(C)(C)C)c2)c1 [Compound B2R016-01, 6-[4-[3-tert-Butyl-5-(5-ethoxypyridin-3-yl)benzoyl]piperazin-1-yl]-N-[4-(2-phenylsulfanylethylamino)-3-(trifluoromethyl)phenyl]sulfonylpyridazine-3-carboxamide] | 
 | 21.4 | 11.4 | CCOc1cncc(-c2ccccc2CN2CCN(c3ccc(C(=O)NS(=O)(=O)c4ccc(NCCSc5ccccc5)c(C(F)(F)F)c4)nn3)CC2)c1 [Compound B2R072-01] | 
 | 17.7 | −1.3 | CCOc1cccc(-c2ccccc2CCC(=O)N2CCN(c3ccc(C(=O)NS(=O)(=O)c4ccc(NCCSc5ccccc5)c(C(F)(F)F)c4)nn3)CC2)c1 [Compound B2R011-01, 6-[4-[3-[2-(3-Ethoxyphenyl)phenyl]propanoyl]piperazin-1-yl]-N-[4-(2-phenylsulfanylethylamino)-3-(trifluoromethyl)phenyl]sulfonylpyridazine-3-carboxamide] | 
 | 0.0 | 0.0 | CCOc1cncc(-c2csc(C(=O)N3CCN(c4ccc(C(=O)NS(=O)(=O)CCC(F)(F)F)cc4)CC3)c2)c1 [Compound B2N024-01, 4-[4-[4-(5-Ethoxypyridin-3-yl)thiophene-2-carbonyl]piperazin-1-yl]-N-(3,3,3-trifluoropropylsulfonyl)benzamide] | 
 | 0.0 | 0.0 | CCOc1cccc(-c2ccc(CN3CCN(c4ccc(C(=O)NS(=O)(=O)CCC(F)(F)F)cc4)CC3)cc2F)c1 [Compound B2N051-01, 4-[4-[[4-(3-Ethoxyphenyl)-3-fluorophenyl]methyl]piperazin-1-yl]-N-(3,3,3-trifluoropropylsulfonyl)benzamide] | 
 | 3.3 | −0.8 | CCOc1cncc(-c2ccc(CN3CCN(c4ccc(C(=O)NS(=O)(=O)c5ccc(NCCSc6ccccc6)c(C(F)(F)F)c5)cc4)CC3)c(OC)c2)c1 [Compound B2R054-01, 4-[4-[[4-(5-Ethoxypyridin-3-yl)-2-methoxyphenyl]methyl]piperazin-1-yl]-N-[4-(2-phenylsulfanylethylamino)-3-(trifluoromethyl)phenyl]sulfonylbenzamide] | 
 | 0.0 | 0.0 | CCOc1cncc(-c2cc(OC)c(CN3CCN(c4ccc(C(=O)NS(=O)(=O)CCC(F)(F)F)cc4)CC3)c(OC)c2)c1 [Compound B2N060-01, 4-[4-[[4-(5-Ethoxypyridin-3-yl)-2,6-dimethoxyphenyl]methyl]piperazin-1-yl]-N-(3,3,3-trifluoropropylsulfonyl)benzamide] | 
 | 4.1 | −0.5 | CCOc1cncc(-c2ccc(C(=O)N3CCN(c4ccc(C(=O)NS(=O)(=O)c5ccc(NCCSc6ccccc6)c(C(F)(F)F)c5)cc4)CC3)cc2F)c1 [Compound B2R028-01, 4-[4-[4-(5-Ethoxypyridin-3-yl)-3-fluorobenzoyl]piperazin-1-yl]-N-[4-(2-phenylsulfanylethylamino)-3-(trifluoromethyl)phenyl]sulfonylbenzamide] | 
 | 0.0 | 0.0 | CCOc1cncc(-c2cc(CN3CCN(c4ccc(C(=O)NS(=O)(=O)CCC(F)(F)F)cc4)CC3)cc(OC(F)(F)F)c2)c1 [Compound B2N064-01, 4-[4-[[3-(5-Ethoxypyridin-3-yl)-5-(trifluoromethoxy)phenyl]methyl]piperazin-1-yl]-N-(3,3,3-trifluoropropylsulfonyl)benzamide] | 

The next lines start with the compound.

Compound | ASMS ratio (%) n = 1 [1] [%] | ASMS ratio (%) n = 1 [3] [%] | ASMS ratio (%) n = 2 [4] [%] | also measured
CCOc1cncc(-c2ccccc2CN2CCN(c3ccc(C(=O)NS(=O)(=O)C(C)(C)C)nn3)CC2)c1 [Compound B2L072-01, N-tert-Butylsulfonyl-6-[4-[[2-(5-ethoxypyridin-3-yl)phenyl]methyl]piperazin-1-yl]pyridazine-3-carboxamide] | −10.7 |  |  | ASMS ratio (%) n = 2 [2]: 8.3%
CCOc1cncc(-c2ccc(CN3CCN(c4ccc(C(=O)NS(C)(=O)=O)cc4)CC3)cc2C)c1 [Compound B2I048-01, 4-[4-[[4-(5-Ethoxypyridin-3-yl)-3-methylphenyl]methyl]piperazin-1-yl]-N-methylsulfonylbenzamide] | 0.0 |  |  | ASMS ratio (%) n = 2 [2]: 0.0%
CCOc1cccc(-c2csc(C(=O)N3CCN(c4ccc(C(=O)NS(=O)(=O)CCC(F)(F)F)cc4)CC3)c2)c1 [Compound B2N023-01, 4-[4-[4-(3-Ethoxyphenyl)thiophene-2-carbonyl]piperazin-1-yl]-N-(3,3,3-trifluoropropylsulfonyl)benzamide] |  | 0.0 | 0.0 | 
CCOc1cncc(-c2cc(CN3CCN(c4ccc(C(=O)NS(C)(=O)=O)cc4)CC3)cc(OCC)c2)c1 [Compound B2I056-01, 4-[4-[[3-Ethoxy-5-(5-ethoxypyridin-3-yl)phenyl]methyl]piperazin-1-yl]-N-methylsulfonylbenzamide] | 0.0 |  |  | ASMS ratio (%) n = 2 [2]: 0.0%
CCOc1cccc(-c2ccc(CN3CCN(c4ccc(C(=O)NS(C)(=O)=O)nn4)CC3)cc2C)c1 [Compound B2I073-01, 6-[4-[[4-(3-Ethoxyphenyl)-3-methylphenyl]methyl]piperazin-1-yl]-N-methylsulfonylpyridazine-3-carboxamide] | 0.0 |  |  | ASMS ratio (%) n = 2 [2]: 0.0%
CCOc1cncc(-c2ccc(C(=O)N3CCN(c4ccc(C(=O)N(CC)CC)nn4)CC3)cc2F)c1 [Compound B4J006-01, 6-[4-[4-(5-Ethoxypyridin-3-yl)-3-fluorobenzoyl]piperazin-1-yl]-N,N-diethylpyridazine-3-carboxamide] |  |  |  | ASMS ratio (%) n = 1 (Example 4 mixture library, 1200 compounds/well, Bcl-2 protein, replicate n = 1, value belongs to the MS peak assignable to the compound): 0.0%; ASMS ratio (%) n = 2 (Example 4 mixture library, 1200 compounds/well, Bcl-2 protein, replicate n = 2, value belongs to the MS peak assignable to the compound): 0.0%
CCOc1cccc(-c2csc(CN3CCN(c4ccc(C(=O)NS(=O)(=O)C(C)(C)C)nn4)CC3)c2)c1 [Compound B2L093-01] |  |  | 0.0 | 
CCCNC(=O)c1ccc(N2CCN(Cc3cc(-c4cncc(OCC)c4)cc(C(F)(F)F)c3)CC2)nn1 [Compound B1M088-01] |  |  |  | ASMS ratio (%) n = 1 (AS-MS, mixture of 1200 compounds/well, Bcl-2 protein, replicate n = 1): 0.0%; ASMS ratio (%) n = 2 (AS-MS, mixture of 1200 compounds/well, Bcl-2 protein, replicate n = 2): 0.0%
CCOc1cccc(-c2ccc(CN3CCN(c4ccc(C(=O)NS(=O)(=O)C(C)(C)C)cc4)CC3)cc2F)c1 [Compound B2L051-01, N-tert-Butylsulfonyl-4-[4-[[4-(3-ethoxyphenyl)-3-fluorophenyl]methyl]piperazin-1-yl]benzamide] | 0.0 |  |  | ASMS ratio (%) n = 2 [2]: 0.0%
CCOc1cccc(C#Cc2cc(C(=O)N3CCN(c4ccc(C(=O)NS(=O)(=O)C(C)(C)C)cc4)CC3)cc(C(F)(F)F)c2)c1 [Compound B2L041-01, N-tert-Butylsulfonyl-4-[4-[3-[2-(3-ethoxyphenyl)ethynyl]-5-(trifluoromethyl)benzoyl]piperazin-1-yl]benzamide] | 0.0 |  |  | 
CCOc1cncc(-c2cc(CN3CCN(c4ccc(C(=O)NS(=O)(=O)C(C)(C)C)cc4)CC3)cc(OC(F)(F)F)c2)c1 [Compound B2L064-01] | 0.0 |  |  | ASMS ratio (%) n = 2 [2]: 0.0%
CCOc1cccc(-c2ccc(CN3CCN(c4ccc(C(=O)NS(=O)(=O)C(C)(C)C)cc4)CC3)cc2C)c1 [Compound B2L047-01, N-tert-Butylsulfonyl-4-[4-[[4-(3-ethoxyphenyl)-3-methylphenyl]methyl]piperazin-1-yl]benzamide] | 0.0 |  |  | ASMS ratio (%) n = 2 [2]: 0.0%
